PubChem BioAssay AID330 (DTP/NCI, 2004)
Where “and” joins values, the source holds several entries; their conditions need not be identical. Equal values may be shown once. Toxic doses and inconclusive results are not listed. How the source made its calls: active means survival T/C of 150% or more; inactive means T/C below 125% in these data.

Tested on: P388 leukemia ip, CD2F1 mice, survival T/C
Test: NCI In Vivo Anticancer Drug Screen. Data for tumor model P388 Leukemia (intraperitoneal) in CD2F1 (CDF1) mice
Conditions: endpoint: median survival time, higher = longer survival
Outline: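 Mice carrying the transplanted tumor received test compound or vehicle. Survival was recorded in each group, and the value is the treated-group measurement divided by that of the vehicle-treated control group.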

[1] = dose: 25.0 mg/kg/injection, schedule: Q01DX009 (ip), vehicle: suspension in saline
[2] = dose: 50.0 mg/kg/injection, schedule: Q01DX009 (ip), vehicle: suspension in saline
[3] = dose: 50.0 mg/kg/injection, schedule: Q01DX009 (ip), vehicle: saline with Tween-80
[4] = dose: 100.0 mg/kg/injection, schedule: Q01DX009 (ip), vehicle: saline with Tween-80
[5] = dose: 200.0 mg/kg/injection, schedule: Q01DX009 (ip), vehicle: saline with Tween-80
[6] = dose: 50.0 mg/kg/injection, schedule: Q01DX005 (ip), vehicle: saline with Tween-80
[7] = dose: 100.0 mg/kg/injection, schedule: Q01DX005 (ip), vehicle: saline with Tween-80
[8] = dose: 200.0 mg/kg/injection, schedule: Q01DX005 (ip), vehicle: saline with Tween-80
[9] = dose: 25.0 mg/kg/injection, schedule: Q01DX009 (ip), vehicle: saline
[10] = dose: 50.0 mg/kg/injection, schedule: Q01DX009 (ip), vehicle: saline
[11] = dose: 100.0 mg/kg/injection, schedule: Q01DX009 (ip), vehicle: saline
[12] = dose: 200.0 mg/kg/injection, schedule: Q01DX009 (ip), vehicle: saline
[13] = dose: 60.0 mg/kg/injection, schedule: Q01DX005 (ip), vehicle: saline with Tween-80
[14] = dose: 120.0 mg/kg/injection, schedule: Q01DX005 (ip), vehicle: saline with Tween-80
[15] = dose: 25.0 mg/kg/injection, schedule: Q01DX009 (ip), vehicle: water
[16] = dose: 50.0 mg/kg/injection, schedule: Q01DX009 (ip), vehicle: water
[17] = dose: 100.0 mg/kg/injection, schedule: Q01DX009 (ip), vehicle: water
[18] = dose: 200.0 mg/kg/injection, schedule: Q01DX009 (ip), vehicle: water
[19] = dose: 400.0 mg/kg/injection, schedule: Q01DX009 (ip), vehicle: water
[20] = dose: 50.0 mg/kg/injection, schedule: Q01DX005 (ip), vehicle: Klucel (hydroxypropylcellulose) (HPC)
[21] = dose: 100.0 mg/kg/injection, schedule: Q01DX005 (ip), vehicle: Klucel (hydroxypropylcellulose) (HPC)
[22] = dose: 200.0 mg/kg/injection, schedule: Q01DX005 (ip), vehicle: Klucel (hydroxypropylcellulose) (HPC)

Measured: T/C

CN(C)c1ccc(N=C2C=CC(=O)C(Cl)=C2)cc1
inactive: [1] 106 % of control | [2] 115 % of control

COC1/C=C/OC2(C)Oc3c(C)c(O)c4c(O)c(c(/C=N/N(C)c5ncnc6c5ncn6C5OC(CO)C(O)C5O)c(O)c4c3C2=O)NC(=O)C(C)=C/C=C/C(C)C(O)C(C)C(O)C(C)C(OC(C)=O)C1C (stereo unspecified)
inactive: [3] 100 % of control | [4] 102 % of control | [5] 102 % of control

BrC/C(=N\N=C(\CBr)c1ccc(Br)cc1)c1ccc(Br)cc1
inactive: dose: 50.0 mg/kg/injection, schedule: Q01DX009 (ip), vehicle: Klucel (hydroxypropylcellulose) (HPC) 100 % of control | dose: 100.0 mg/kg/injection, schedule: Q01DX009 (ip), vehicle: Klucel (hydroxypropylcellulose) (HPC) 100 % of control | dose: 200.0 mg/kg/injection, schedule: Q01DX009 (ip), vehicle: Klucel (hydroxypropylcellulose) (HPC) 91 % of control

O=c1c(F)cn(C(c2ccccc2)c2ccccc2)c(=O)n1C(c1ccccc1)c1ccccc1
inactive: dose: 12.5 mg/kg/injection, schedule: Q01DX009 (ip), vehicle: suspension in saline 101 % of control | dose: 18.75 mg/kg/injection, schedule: Q01DX009 (ip), vehicle: suspension in saline 115 % of control | [1] 106 % of control | dose: 37.5 mg/kg/injection, schedule: Q01DX009 (ip), vehicle: suspension in saline 97 % of control | [2] 100 % of control | dose: 75.0 mg/kg/injection, schedule: Q01DX009 (ip), vehicle: suspension in saline 101 % of control and 115 % of control | dose: 150.0 mg/kg/injection, schedule: Q01DX009 (ip), vehicle: suspension in saline 97 % of control

O=C1CCCCCOCCOCCOCCOCCOCCCCC1
inactive: [6] 104 % of control | [7] 96 % of control | [8] 101 % of control

NC(=S)Nc1ccc(C(=O)O)cc1
inactive: dose: 100.0 mg/kg/injection, schedule: Q04DX003 (ip), vehicle: saline with Tween-80 100 % of control | dose: 200.0 mg/kg/injection, schedule: Q04DX003 (ip), vehicle: saline with Tween-80 95 % of control | dose: 400.0 mg/kg/injection, schedule: Q04DX003 (ip), vehicle: saline with Tween-80 109 % of control

Cn1cnc([N+](=O)[O-])c1Sc1ccncn1
inactive: [9] 101 % of control and 105 % of control | [10] 99 % of control and 103 % of control and 114 % of control | [11] 103 % of control and 118 % of control | [12] 112 % of control and 116 % of control

N#CC(C(=O)C(=O)Nc1cccc(C(F)(F)F)c1)c1ccccc1Cl (stereo unspecified)
inactive: [13] 102 % of control | [14] 97 % of control | dose: 240.0 mg/kg/injection, schedule: Q01DX005 (ip), vehicle: saline with Tween-80 99 % of control

CCC1(C2OC(C3OC(O)(CO)C(C)CC3C)CC2C)CCC(C2(C)CCC3(CC(O)C(C)C(C(C)C(OC)C(C)C(=O)O)O3)O2)O1 (stereo unspecified)
inactive: dose: 3.13 mg/kg/injection, schedule: Q01DX005 (ip), vehicle: saline with Tween-80 110 % of control and 112 % of control | dose: 6.25 mg/kg/injection, schedule: Q01DX005 (ip), vehicle: saline with Tween-80 108 % of control and 111 % of control and 118 % of control | dose: 12.5 mg/kg/injection, schedule: Q01DX005 (ip), vehicle: saline with Tween-80 120 % of control

O=C(Nc1nc(-c2ccccc2)cs1)OCC(Cl)(Cl)Cl
inactive: [6] 93 % of control | [7] 91 % of control | [8] 96 % of control

CN1CC2(CO)C(c3ccccn3)N(C)C(c3ccccn3)C(CO)(C1)C2O (stereo unspecified)
inactive: [13] 107 % of control | [14] 104 % of control

CC(=O)N1CCNC(=O)/C1=C1\CCOC1=O
inactive: [3] 99 % of control | [4] 101 % of control | [5] 110 % of control

O=C(O)/C(Cl)=C(/Cl)C(=O)C(Cl)(Cl)Cl
active: dose: 25.0 mg/kg/injection, schedule: Q01DX009 (ip), vehicle: distilled water + Tween-80 155 % of control | dose: 50.0 mg/kg/injection, schedule: Q01DX009 (ip), vehicle: distilled water + Tween-80 155 % of control
inactive: dose: 3.13 mg/kg/injection, schedule: Q01DX009 (ip), vehicle: distilled water + Tween-80 108 % of control

CC(O)c1nc2ccccc2nc1C(=O)Nc1ccccc1N (stereo unspecified)
inactive: [6] 101 % of control | [7] 88 % of control | [8] 92 % of control

CC1(C)N=C(NN=C2CCCCC2)SP1(=O)NCC(=O)O (stereo unspecified)
inactive: dose: 60.0 mg/kg/injection, schedule: Q01DX005 (ip), vehicle: Klucel (hydroxypropylcellulose) (HPC) 101 % of control | dose: 120.0 mg/kg/injection, schedule: Q01DX005 (ip), vehicle: Klucel (hydroxypropylcellulose) (HPC) 100 % of control | dose: 240.0 mg/kg/injection, schedule: Q01DX005 (ip), vehicle: Klucel (hydroxypropylcellulose) (HPC) 101 % of control

Nc1ccc2c(NCCCCCCCCNc3c4ccccc4nc4cc(N)ccc34)c3ccccc3nc2c1
active: dose: 1.25 mg/kg/injection, schedule: Q01DX009 (ip), vehicle: other 158 % of control | dose: 2.5 mg/kg/injection, schedule: Q01DX009 (ip), vehicle: other 150 % of control | dose: 5.0 mg/kg/injection, schedule: Q01DX009 (ip), vehicle: other 151 % of control

COc1cccc(CCC(=O)O)c1OC
inactive: [15] 103 % of control | [16] 100 % of control | [17] 108 % of control | [18] 91 % of control | [19] 92 % of control

COC1=C(OC)C(C(O)CO)OC1=O (stereo unspecified)
inactive: [15] 98 % of control | [16] 98 % of control | [17] 90 % of control | [18] 99 % of control | [19] 96 % of control

CC(C)(C)/C=C/N1N=NC(c2ccccc2)(c2ccccc2)C1=O
inactive: [20] 91 % of control | [21] 92 % of control | [22] 96 % of control

CC(C)CC1NC(=O)C2N=C(OC2C)C2CSSCC(NC(=O)c3csc1n3)C1=NC(C(=O)NC(CC(C)C)c3nc(cs3)C(=O)N2)C(C)O1 (stereo unspecified)
inactive: dose: 0.2 mg/kg/injection, schedule: Q01DX005 (ip), vehicle: DMSO 97 % of control | dose: 0.4 mg/kg/injection, schedule: Q01DX005 (ip), vehicle: DMSO 96 % of control | dose: 0.8 mg/kg/injection, schedule: Q01DX005 (ip), vehicle: DMSO 90 % of control | dose: 1.5 mg/kg/injection, schedule: Q01DX005 (ip), vehicle: DMSO 97 % of control

O=C(/C(O)=C(\O)C(=O)N(C1CCCCC1)C1CCCCC1)N(C1CCCCC1)C1CCCCC1
inactive: dose: 25.0 mg/kg/injection, schedule: Q01DX005 (ip), vehicle: Klucel (hydroxypropylcellulose) (HPC) 100 % of control | [20] 96 % of control | [21] 100 % of control | [22] 92 % of control

CCN(CC)CCN(C)C(=O)C(O)(c1ccccc1)c1ccccc1
inactive: [9] 100 % of control | [10] 104 % of control | [11] 104 % of control | [12] 100 % of control

O=C(O)CCCCCCCCC(=O)CCl
inactive: [9] 99 % of control | [10] 115 % of control

COc1ccc(C(=O)O[C@H]2CC[C@@]3(C)[C@@H]4CC[C@H]5[C@]6(O)C[C@H](O)[C@@]7(O)[C@@H](CN8C[C@@H](C)CC[C@H]8[C@@]7(C)O)[C@]6(O)C[C@@]53OC24O)cc1OC
inactive: dose: 3.12 mg/kg/injection, schedule: Q01DX005 (ip), vehicle: saline 95 % of control | dose: 6.25 mg/kg/injection, schedule: Q01DX005 (ip), vehicle: saline 95 % of control | dose: 12.5 mg/kg/injection, schedule: Q01DX005 (ip), vehicle: saline 97 % of control

C[N+]1(C)CCc2c([nH]c3ccccc23)C1
inactive: dose: 100.0 mg/kg/injection, schedule: Q01DX001 (ip), vehicle: suspension in saline 95 % of control | dose: 200.0 mg/kg/injection, schedule: Q01DX001 (ip), vehicle: suspension in saline 107 % of control

CC1=CC(=O)C=C/C1=N/S(=O)(=O)c1ccccc1
inactive: dose: 12.5 mg/kg/injection, schedule: Q01DX001 (ip), vehicle: saline with Tween-80 100 % of control | dose: 25.0 mg/kg/injection, schedule: Q01DX001 (ip), vehicle: saline with Tween-80 90 % of control | dose: 50.0 mg/kg/injection, schedule: Q01DX001 (ip), vehicle: saline with Tween-80 100 % of control
